Laboratory results: patent publication US5837698A, “Steroid nitrite and nitrate ester derivatives useful as anti-inflammatory drugs” (G. D. Searle & Co., priority 1996, dated 1998)

Key:
[1] = test system: rat aortic ring smooth muscle; experiment: In vitro smooth muscle relaxant activity assay (rat aortic ring) in the presence of Cys and L-NAME; format: cell-based; conditions: for EC50: rat aortic rings precontracted with phenylephrine (0.3 uM), in the presence of cysteine and L-NAME, read-out: Relaxation, EC50
Procedure: The rat aortic ring assay was utilized as a bioassay to measure the relaxant activity. The rings were precontracted with phenylephrine (0.3 uM) and subsequently compounds were added to the tissue bath in the presence of cysteine (Cys) and N^G -L-nitroarginine methyl ester (L-NAME): A.In vitro smooth muscle relaxant activity assay in the presence of Cys and L-NAME: […]

[2] = test system: prostaglandin E2 (PGE2) synthesis in Human fetal fibroblast cells; experiment: In vitro inhibition of prostaglandin E2 (PGE2) synthesis assay; format: cell-based; conditions: IL-1 for 16 hours, compound 10 uM given with IL-1, ELISA, Basal 0.6, IL-1 alone 9.4
Procedure: B. In vitro inhibiton of prostaglandin E2 (PGE2) synthesis assay: Human fetal fibroblast cells were treated with IL-1 for 16 hours and prostaglandin E2 was measured by an ELISA. Compounds were given at the time of addition of IL-1. This assay provides an in vitro assessment of the compound to block the induction of the proinflammatory agent prostaglandin E2 (PGE2): […]

Row | Compound | EC50 [1] [µM] | PGE2 [2] [ng] | smooth muscle relaxant activity (in words) ([1]; rat aortic ring, precontracted with phenylephrine, Cys and L-NAME)
1 | CCC(=O)OCC(=O)[C@@]1(OC(=O)CC)[C@@H](C)C[C@H]2[C@@H]3CCC4=CC(=O)C=C[C@]4(C)[C@@]3(Cl)[C@@H](OC(=O)CCC(=O)O[C@H]3CO[C@H]4[C@@H]3OC[C@H]4O[N+](=O)[O-])C[C@@]21C [Example 1] | > 10 | 0.5 | –
2 | C[C@]12C=CC(=O)C=C1CC[C@@H]1[C@@H]2[C@@H](O)C[C@@]2(C)[C@H]1CC[C@]2(O)C(=O)COC(=O)CCC(=O)O[C@H]1CO[C@H]2[C@@H]1OC[C@H]2O[N+](=O)[O-] [Example 21] | 3 | 0.4 | –
3 | CCC(=O)OCC(=O)[C@@]1(OC(=O)CC)[C@@H](C)C[C@H]2[C@@H]3CCC4=CC(=O)C=C[C@]4(C)[C@@]3(Cl)[C@@H](O)C[C@@]21C [Beclomethasone-dipropionate, reference compound] | 100 | – | did not show any effect
4 | C[C@@H]1C[C@H]2[C@@H]3CCC4=CC(=O)C=C[C@]4(C)[C@@]3(F)[C@@H](O)C[C@]2(C)[C@@]1(O)C(=O)CO [Dexamethasone, reference compound] | – | 0.6 | –
